Source: US20260001889A1, “COMPOSITIONS USEFUL FOR MODULATING SPLICING” (Skyhawk Therapeutics, Inc., priority 2022, published 2026)

Key:
total ATXN3 protein = experiment: ATXN3 Total Protein Assay (Mesoscale Discovery, SK-N-MC cells); assay type: cell-based, Human; conditions: incubation for 48 hours, MSD assay
Description: Example 35: ATXN3 Total Protein Assay
Human neuroblastoma SK-N-MC cells were seeded at 10,000 cells/well in 384 well plates one day prior to compound treatment. The concentrations of compounds were tested at appropriate doses ranging from 30 μM to 0.6 nM. After incubation for 48 hours, the cells were lysed with 25 μL of lysis buffer containing protease inhibitors, and total ATXN3 protein levels were assessed by Mesoscale Discovery (MSD) assay developed with one pair of anti-ATXN3 antibodies. The capture and detect antibodies were raised in mouse and rabbit respectively. Anti-rabbit MSD-ST antibody was used for secondary antibody.
ATXN3 recombinant protein was used for standards. The readouts were captured with 35 μL of MSD read buffer and multi-array 384-well high binding plates.

ATXN3-HiBiT protein = experiment: ATXN3 Total Protein Assay (Kelly-ATXN3-HiBiT luminescence); assay type: cell-based; conditions: Kelly-ATXN3-HiBiT cells, 48 h after addition of compound
Method in brief: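 Kelly cells with homozygous C-terminal HiBiT knock-in on endogenous ATXN3, 2000 per well, dosed 24 h after seeding. HiBiT lytic luminescence read 48 h after compound; sister plate read with CellTiter-Glo for viability; fold change vs DMSO.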

[1] = tested on: ATXN3 transcripts containing exon 4; experiment: ATXN3 Quantitative Splicing Assay (qPCR, E4E5 primers/probe); assay type: cell-based; conditions: Homo sapiens, SK-N-MC cells, compounds for 24 h
Method in brief: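 SK-N-MC human neuroblastoma cells treated 24 h with compound from 30 μM to 0.6 nM, 24 h after plating. Lysate cDNA was run in TaqMan qPCR, with primers/probe E4E5 detecting exon 4-containing ATXN3 transcripts and E8E9 measuring total ATXN3.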

SMILES | IC50 (total ATXN3 protein) | EC50 (ATXN3-HiBiT protein) | IC50 [1]
N[C@H](Cc1oc2c(NCc3ccco3)cc(Cl)nc2c1Br)CC(F)(F)F [Compound 26, 2-[(R)-2-amino-4,4,4-trifluorobutyl]-3-bromo-5-chloro-7-(furfurylamino)-1-oxa-4-azaindene] | 101 to 500 nM | 501 to 5000 nM | 101 to 500 nM
N[C@H](Cc1oc2c(NCc3ccco3)cc(Cl)nc2c1Cl)CC(F)(F)F [Compound 27, 2-[(R)-2-amino-4,4,4-trifluorobutyl]-3,5-dichloro-7-(furfurylamino)-1-oxa-4-azaindene] | 501 to 5000 nM | 501 to 5000 nM | 501 to 5000 nM
Cc1c(C[C@@H](N)CCF)oc2c(NCc3cccs3)cc(Cl)nc12 [Compound 31, 2-[(2R)-2-amino-4-fluorobutyl]-5-chloro-3-methyl-N-(thiophen-2-ylmethyl)furo[3,2-b]pyridin-7-amine] | 101 to 500 nM | 101 to 500 nM | 101 to 500 nM
C[C@H](N)Cc1oc2c(NCc3ccco3)cc(Cl)nc2c1Br [Compound 34, 2-[(S)-2-aminopropyl]-3-bromo-5-chloro-7-(furfurylamino)-1-oxa-4-azaindene] | 0.01 to 100 nM | 0.01 to 100 nM | 0.01 to 100 nM
C[C@H](N)Cc1oc2c(NCc3cccs3)cc(C#N)nc2c1Br [Compound 35, 2-[(S)-2-aminopropyl]-3-bromo-7-thenylamino-1-oxa-4-aza-5-indenecarbonitrile] | 101 to 500 nM | 101 to 500 nM | 101 to 500 nM
C[C@H](N)Cc1oc2c(NCc3ccco3)cc(C#N)nc2c1Br [Compound 36, 2-[(S)-2-aminopropyl]-3-bromo-7-(furfurylamino)-1-oxa-4-aza-5-indenecarbonitrile] | 501 to 5000 nM | 501 to 5000 nM | 501 to 5000 nM
COC[C@H](N)Cc1oc2c(NCc3cccs3)cc(Cl)nc2c1Br [Compound 37, 2-[(R)-2-amino-3-methoxypropyl]-3-bromo-5-chloro-7-thenylamino-1-oxa-4-azaindene] | 0.01 to 100 nM | 0.01 to 100 nM | 0.01 to 100 nM
C#Cc1cc(NCc2cccs2)c2oc(C[C@H](C)N)c(C)c2n1 [Compound 40, 2-[(S)-2-aminopropyl]-5-ethynyl-3-methyl-7-thenylamino-1-oxa-4-azaindene] | 501 to 5000 nM | 501 to 5000 nM | 501 to 5000 nM
Cc1c(C[C@@H](N)[C@H](C)F)oc2c(NCc3cccs3)cc(Cl)nc12 [Compound 41, 2-[(2R,3S)-2-amino-3-fluorobutyl]-5-chloro-3-methyl-7-thenylamino-1-oxa-4-azaindene] | 0.01 to 100 nM | 0.01 to 100 nM | 0.01 to 100 nM
C[C@H](F)[C@H](N)Cc1oc2c(NCc3cccs3)cc(Cl)nc2c1Br [Compound 43, 2-[(2R,3S)-2-amino-3-fluorobutyl]-3-bromo-5-chloro-N-(thiophen-2-ylmethyl)furo[3,2-b]pyridin-7-amine] | 0.01 to 100 nM | 0.01 to 100 nM | 0.01 to 100 nM
C[C@@H](F)[C@H](N)Cc1oc2c(NCc3cccs3)cc(Cl)nc2c1Br [Compound 44, 2-[(2R,3R)-2-amino-3-fluorobutyl]-3-bromo-5-chloro-7-thenylamino-1-oxa-4-azaindene] | 101 to 500 nM | 101 to 500 nM | 101 to 500 nM
C[C@H](N)Cc1oc2c(NCc3nccs3)cc(Cl)nc2c1Br [Compound 45, 2-[(S)-2-aminopropyl]-3-bromo-5-chloro-7-{[(1,3-thiazol-2-yl)methyl]amino}-1-oxa-4-azaindene] | 101 to 500 nM | 0.01 to 100 nM | 101 to 500 nM
COC[C@H](N)Cc1oc2c(NCc3ccncc3)cc(Cl)nc2c1Br [Compound 48, (R)-2-(2-amino-3-methoxypropyl)-3-bromo-5-chloro-N-(pyridin-4-ylmethyl)furo[3,2-b]pyridin-7-amine] | 101 to 500 nM | 101 to 500 nM | 101 to 500 nM
COC[C@H](N)Cc1oc2c(NCc3cccs3)cc(Cl)nc2c1Cl [Compound 50, 2-[(R)-2-amino-3-methoxypropyl]-3,5-dichloro-7-thenylamino-1-oxa-4-azaindene] | 0.01 to 100 nM | 0.01 to 100 nM | 0.01 to 100 nM
COC[C@H](N)Cc1oc2c(NCc3ccccc3)cc(Cl)nc2c1Cl [Compound 51, 2-[(R)-2-amino-3-methoxypropyl]-7-benzylamino-3,5-dichloro-1-oxa-4-azaindene] | 101 to 500 nM | 101 to 500 nM | 101 to 500 nM
COC[C@H](N)Cc1oc2c(NCc3ccco3)cc(Cl)nc2c1Cl [Compound 52, 2-[(R)-2-amino-3-methoxypropyl]-3,5-dichloro-7-(furfurylamino)-1-oxa-4-azaindene] | 101 to 500 nM | 0.01 to 100 nM | 0.01 to 100 nM
COC[C@H](N)Cc1oc2c(NCc3nccs3)cc(Cl)nc2c1Cl [Compound 53, 2-[(R)-2-amino-3-methoxypropyl]-3,5-dichloro-7-{[(1,3-thiazol-2-yl)methyl]amino}-1-oxa-4-azaindene] | 101 to 500 nM | 101 to 500 nM | 101 to 500 nM
C[C@H](N)Cc1oc2c(NCc3nccs3)cc(Cl)nc2c1Cl [Compound 57, 2-[(S)-2-aminopropyl]-3,5-dichloro-7-{[(1,3-thiazol-2-yl)methyl]amino}-1-oxa-4-azaindene] | 101 to 500 nM | 101 to 500 nM | 101 to 500 nM
N[C@@H](CF)Cc1oc2c(NCc3cccs3)cc(Cl)nc2c1Br [Compound 58, 2-[(R)-2-amino-3-fluoropropyl]-3-bromo-5-chloro-7-thenylamino-1-oxa-4-azaindene] | 0.01 to 100 nM | 0.01 to 100 nM | 0.01 to 100 nM
Cc1cc(NCc2cccs2)c2oc(C[C@@H](N)CO)c(Br)c2n1 [Compound 59, (R)-2-amino-3-(3-bromo-5-methyl-7-thenylamino-1-oxa-4-aza-2-indenyl)-1-propanol] | 101 to 500 nM | 0.01 to 100 nM | 101 to 500 nM
N#Cc1cc(NCc2cccs2)c2oc(C[C@@H](N)CO)c(Br)c2n1 [Compound 60, 2-[(R)-2-amino-3-hydroxypropyl]-3-bromo-7-thenylamino-1-oxa-4-aza-5-indenecarbonitrile] | 101 to 500 nM | 101 to 500 nM | 101 to 500 nM
C#Cc1c(C[C@@H](N)COC)oc2c(NCc3cccs3)cc(Cl)nc12 [Compound 61, 2-[(R)-2-amino-3-methoxypropyl]-5-chloro-3-ethynyl-7-thenylamino-1-oxa-4-azaindene] | 0.01 to 100 nM | 0.01 to 100 nM | 0.01 to 100 nM
C#Cc1c(C[C@H](C)N)oc2c(NCc3nccs3)cc(Cl)nc12 [Compound 62, 2-[(S)-2-aminopropyl]-5-chloro-3-ethynyl-7-{[(1,3-thiazol-2-yl)methyl]amino}-1-oxa-4-azaindene] | 101 to 500 nM | 0.01 to 100 nM | 101 to 500 nM
C#Cc1c(C[C@H](C)N)oc2c(NCc3cccs3)cc(Cl)nc12 [Compound 63, 2-[(2S)-2-aminopropyl]-5-chloro-3-ethynyl-N-(thiophen-2-ylmethyl)furo[3,2-b]pyridin-7-amine] | 0.01 to 100 nM | 0.01 to 100 nM | 0.01 to 100 nM
C#Cc1c(C[C@H](C)N)oc2c(NCc3ccco3)cc(Cl)nc12 [Compound 64, 2-[(S)-2-aminopropyl]-5-chloro-3-ethynyl-7-(furfurylamino)-1-oxa-4-azaindene] | 0.01 to 100 nM | 0.01 to 100 nM | 0.01 to 100 nM
